Where two headings read alike, the source gives them in different places.
Assays:
human 5-HT1F receptor = biological target: T1, human 5-HT1F receptor (Homo sapiens, UniProt P30939); assay: Radioligand competition binding, human 5-HT1F receptor ([3H]-serotonin); conditions: read-out: Affinity at 5-HT1F (Ki ± SEM)
T1 construct: expressed in transfected cells
T1 sequence (P30939 1-366): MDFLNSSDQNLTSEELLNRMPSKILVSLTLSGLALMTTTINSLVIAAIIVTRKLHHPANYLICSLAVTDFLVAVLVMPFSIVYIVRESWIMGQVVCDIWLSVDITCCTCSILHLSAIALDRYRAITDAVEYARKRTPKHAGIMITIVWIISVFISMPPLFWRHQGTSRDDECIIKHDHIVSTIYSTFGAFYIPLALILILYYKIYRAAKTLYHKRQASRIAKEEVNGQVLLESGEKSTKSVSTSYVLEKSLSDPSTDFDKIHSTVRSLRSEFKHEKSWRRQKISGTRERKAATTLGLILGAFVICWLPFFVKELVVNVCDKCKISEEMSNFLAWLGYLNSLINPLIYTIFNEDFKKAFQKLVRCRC
Procedure: (§1) The binding of a test compound to a receptor of interest was generally evaluated by competitive binding assays using membrane preparations derived from cells which expressed the receptor. First, conditions were determined which allowed measurement of the specific binding of a compound known to bind to the receptor. Then, the binding of the known compound to the receptor in membrane preparations was evaluated in the presence of several different concentrations of the test compound.
(§2) The binding properties of compounds at different human receptors were determined in vitro using cultured cell lines that selectively express the receptor of interest. These cell lines were prepared by transfecting the cloned cDNA or cloned genomic DNA or constructs containing both genomic DNA and cDNA encoding the human receptors as follows:
(§3) Human 5HT1B, 5HT1D, 5HT1E, 5HT1F, and 5HT7 Receptors:
(§4) The cell lysates of LM(tk-) clonal cell line stably transfected with the genes encoding each of these 5-HT receptor-subtypes were prepared as described above. Cell membranes were suspended in 50 mM Tris-HCl buffer (pH 7.4 at 37° C.) containing 10 mM MgCl2, 0.2 mM EDTA, 10 μM pargyline, and 0.1% ascorbate. The affinities of compounds were determined in equilibrium competition binding assays by incubation for 30 minutes at 37° C. in the presence of 5 nM [^3H]-serotonin. Nonspecific binding was determined in the presence of 10 μM serotonin. The bound radioligand was separated by filtration through GF/B filters using a cell harvester.

human 5-HT1D receptor = biological target: T2, human 5-HT1D receptor (Homo sapiens, UniProt P28221); assay: Radioligand competition binding, human 5-HT1D receptor ([3H]-serotonin); conditions: read-out: Affinity at 5-HT1D (Ki ± SEM)
T2 construct: expressed in transfected cells
T2 sequence (P28221 whole entry): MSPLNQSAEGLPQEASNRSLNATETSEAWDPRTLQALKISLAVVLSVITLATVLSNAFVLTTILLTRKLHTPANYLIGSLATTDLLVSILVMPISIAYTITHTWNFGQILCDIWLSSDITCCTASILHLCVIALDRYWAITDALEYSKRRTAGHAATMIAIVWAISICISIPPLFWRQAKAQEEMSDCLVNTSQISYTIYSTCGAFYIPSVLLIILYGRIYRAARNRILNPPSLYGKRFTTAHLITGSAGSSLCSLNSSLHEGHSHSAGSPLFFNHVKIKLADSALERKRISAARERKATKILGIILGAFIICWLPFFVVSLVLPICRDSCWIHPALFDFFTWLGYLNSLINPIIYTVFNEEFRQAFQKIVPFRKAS
Procedure: as §1, §2, §3
(§5) The cell lysates of LM(tk-) clonal cell line stably transfected with the genes encoding each of these 5-HT receptor-subtypes were prepared as described above. Cell membranes were suspended in 50 mM Tris-HCl buffer (pH 7.4 at 37° C.) containing 10 mM MgCl2, 0.2 mM EDTA, 10 μM pargyline, and 0.1% ascorbate. […] Nonspecific binding was determined in the presence of 10 μM serotonin. […]

human 5-HT6 receptor = biological target: T3, human 5-HT6 receptor (Homo sapiens, UniProt P50406); assay: Radioligand binding, human 5-HT6 receptor; conditions: read-out: Affinity at 5-HT6 (Ki ± SEM)
T3 construct: expressed in transfected cells
T3 sequence (P50406 whole entry): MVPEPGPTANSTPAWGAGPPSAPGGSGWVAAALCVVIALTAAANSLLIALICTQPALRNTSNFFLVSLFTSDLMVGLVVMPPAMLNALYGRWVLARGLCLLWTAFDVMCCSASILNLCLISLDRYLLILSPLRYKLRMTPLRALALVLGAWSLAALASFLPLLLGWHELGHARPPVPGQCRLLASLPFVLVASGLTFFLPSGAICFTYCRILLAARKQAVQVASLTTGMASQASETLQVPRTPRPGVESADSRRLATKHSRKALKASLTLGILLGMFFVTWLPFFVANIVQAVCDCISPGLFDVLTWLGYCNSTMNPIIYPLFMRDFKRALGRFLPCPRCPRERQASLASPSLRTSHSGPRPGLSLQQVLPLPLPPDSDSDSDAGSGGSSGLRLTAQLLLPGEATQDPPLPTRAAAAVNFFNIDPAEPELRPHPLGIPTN
Procedure: as §1
(§6) Other 5-HT Receptors: The binding assays using 5-HT4 were preformed according to the procedures described in U.S. Pat. No. 5,766,879, the disclosure of which is hereby incorporated by reference in its entirety into this application. Other serotonin receptor binding assays were preformed according to published methods: 5-HT2B: Kursar et al., 1992; 5-HT2C: Saltzman et al., 1991; 5-HT3: Hoyer and Neijt, 1987; 5-HT5A: Plassat et al., 1992; 5-HT5B: Matthes et al., 1993; 5-HT6: Kohen et al., 1996.

human 5-HT4 receptor = biological target: T4, human 5-HT4 receptor (Homo sapiens, UniProt Q13639); assay: Radioligand binding, human 5-HT4 receptor; conditions: read-out: Affinity at 5-HT4 (Ki ± SEM)
T4 construct: expressed in transfected cells
T4 sequence (Q13639 whole entry): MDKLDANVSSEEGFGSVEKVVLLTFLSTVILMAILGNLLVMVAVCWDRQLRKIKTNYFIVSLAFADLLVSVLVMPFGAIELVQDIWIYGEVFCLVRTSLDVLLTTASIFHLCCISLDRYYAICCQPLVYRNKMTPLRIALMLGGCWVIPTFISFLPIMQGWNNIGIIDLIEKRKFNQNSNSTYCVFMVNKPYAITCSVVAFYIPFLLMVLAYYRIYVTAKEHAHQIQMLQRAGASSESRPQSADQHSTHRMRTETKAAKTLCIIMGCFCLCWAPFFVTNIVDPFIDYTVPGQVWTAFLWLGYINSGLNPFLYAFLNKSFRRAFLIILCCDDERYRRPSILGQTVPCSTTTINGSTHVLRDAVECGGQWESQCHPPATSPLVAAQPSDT
Procedure: as §1, §6

human 5-HT1A receptor = biological target: T5, human 5-HT1A receptor (Homo sapiens, UniProt P08908); assay: Radioligand competition binding, human 5-HT1A receptor (3H-8-OH-DPAT); conditions: read-out: Affinity at 5-HT1A (Ki ± SEM)
T5 construct: expressed in transfected cells; host or cells: COS-7 (transient, pCEXV-3 vector)
T5 sequence (P08908 1-422): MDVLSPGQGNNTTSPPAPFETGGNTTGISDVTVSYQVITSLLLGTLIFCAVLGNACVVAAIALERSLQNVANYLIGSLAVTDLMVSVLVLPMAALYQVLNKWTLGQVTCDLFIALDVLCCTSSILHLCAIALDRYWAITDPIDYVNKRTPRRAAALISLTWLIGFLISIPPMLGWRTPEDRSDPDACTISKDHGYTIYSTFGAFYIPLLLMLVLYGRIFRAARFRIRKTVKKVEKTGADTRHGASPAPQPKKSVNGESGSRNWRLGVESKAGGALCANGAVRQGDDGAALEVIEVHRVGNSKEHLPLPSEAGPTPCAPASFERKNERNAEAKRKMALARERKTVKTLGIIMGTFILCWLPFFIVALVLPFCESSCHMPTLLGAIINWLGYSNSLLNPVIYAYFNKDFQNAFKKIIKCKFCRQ
Procedure: as §1
The binding properties of compounds at different human receptors were determined in vitro using cultured cell lines that selectively express the receptor of interest. […]
(§7) Human 5HT2A Receptor: The coding sequence of the human 5HT2A receptor was obtained from a human brain cortex cDNA library, and cloned into the cloning site of pCEXV-3 eukaryotic expression vector. […] The affinity of compounds at 5-HT2A receptors were determined in equilibrium competition binding assays using [^3H] ketanserin (1 nM). […]
5-HT1A Receptor: The cDNA corresponding to the 5-HT1A receptor open reading frames and variable non-coding 5′- and 3′-regions, was cloned into the eukaryotic expression vector pCEXV-3. […] Radioligand binding assays were performed as described above for the 5-HT2A receptor, except that ^3H-8-OH-DPAT was used as the radioligand and nonspecific binding was determined by the addition of 10 μM mianserin.

[1] = test system: distension-induced rhythmic contractions of the rat bladder; assay: Distension-induced rhythmic contraction (DIRC) model of the micturition reflex; assay type: in vivo; conditions: for Effect on distension-induced rhythmic contractions of the rat bladder: urethane-anesthetized female rat, 0.1 mg/kg
Procedure: The effects of compounds on the micturition reflex were assessed in the “distension-induced rhythmic contraction” (DIRC) model in rats, as described in previous publications (e.g. Maggi et al., 1987; Morikawa et al., 1992).
Female Sprague Dawley rats weighing approximately 300 g were anesthetized with subcutaneous urethane (1.2 g/kg). The trachea was cannulated with PE240 tubing to provide a clear airway throughout the experiment. A midline abdominal incision was made and the left and right ureters were isolated. The ureters were ligated distally (to prevent escape of fluids from the bladder) and cannulated proximally with PE10 tubing. The incision was closed using 4-0 silk sutures, leaving the PE10 lines routed to the exterior for the elimination of urine. The bladder was cannulated via the transurethral route using PE50 tubing inserted 2.5 cm beyond the urethral opening. This cannula was secured to the tail using tape and connected to a pressure transducer. To prevent leakage from the bladder, the cannula was tied tightly to the exterior urethral opening using 4-0 silk.
To initiate the micturition reflex, the bladder was first emptied by applying pressure to the lower abdomen, and then filled with normal saline in 100 μl increments (maximum=2 ml) until spontaneous bladder contractions occurred (typically 20-40 mmHg at a rate of one contraction every 1 to 2 minutes. Once a regular rhythm was established, vehicle (saline) or 5-HT1F-selective compounds were administered i.p. to explore their effects on bladder activity. In some instances, a compound known to affect the micturition reflex (e.g. the GABAB receptor agonist APMPA [3-aminopropyl-2-methyl-phosphinic acid]) was given as a “positive control”.

human 5-HT1E receptor = biological target: T6, human 5-HT1E receptor (Homo sapiens, UniProt P28566); assay: Radioligand competition binding, human 5-HT1E receptor ([3H]-serotonin); conditions: read-out: Affinity at 5-HT1E (Ki ± SEM)
T6 construct: expressed in transfected cells
T6 sequence (P28566 whole entry): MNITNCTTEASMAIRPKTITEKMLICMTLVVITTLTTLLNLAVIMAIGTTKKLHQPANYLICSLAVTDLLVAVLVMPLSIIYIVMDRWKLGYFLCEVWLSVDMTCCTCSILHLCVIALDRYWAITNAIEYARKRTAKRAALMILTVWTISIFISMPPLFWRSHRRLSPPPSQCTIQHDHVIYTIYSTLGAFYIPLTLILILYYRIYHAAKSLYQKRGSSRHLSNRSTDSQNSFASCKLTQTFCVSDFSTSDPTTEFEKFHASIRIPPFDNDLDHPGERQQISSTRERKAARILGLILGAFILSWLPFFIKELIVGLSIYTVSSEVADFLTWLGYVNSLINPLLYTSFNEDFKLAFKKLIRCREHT
Procedure: as §1, §2, §3, §4

human 5-HT2B receptor = biological target: T7, human 5-HT2B receptor (Homo sapiens, UniProt P41595); assay: Radioligand binding, human 5-HT2B receptor
T7 construct: expressed in transfected cells
T7 sequence (P41595 whole entry): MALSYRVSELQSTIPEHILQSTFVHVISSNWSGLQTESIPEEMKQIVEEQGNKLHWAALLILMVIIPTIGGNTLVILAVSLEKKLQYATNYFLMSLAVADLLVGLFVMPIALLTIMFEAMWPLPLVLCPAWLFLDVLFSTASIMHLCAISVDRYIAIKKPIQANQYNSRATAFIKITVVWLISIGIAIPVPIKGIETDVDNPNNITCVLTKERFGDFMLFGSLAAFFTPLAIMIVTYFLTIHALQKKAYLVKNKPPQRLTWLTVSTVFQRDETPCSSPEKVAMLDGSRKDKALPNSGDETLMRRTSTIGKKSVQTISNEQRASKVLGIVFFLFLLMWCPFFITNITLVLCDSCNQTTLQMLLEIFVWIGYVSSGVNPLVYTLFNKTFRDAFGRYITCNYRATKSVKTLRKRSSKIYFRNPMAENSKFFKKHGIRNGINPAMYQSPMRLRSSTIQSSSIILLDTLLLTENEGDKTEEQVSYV
Procedure: as §1, §6

human 5-HT1B receptor = biological target: T8, human 5-HT1B receptor (Homo sapiens, UniProt P28222); assay: Radioligand competition binding, human 5-HT1B receptor ([3H]-serotonin); conditions: read-out: Affinity at 5-HT1B (Ki ± SEM)
T8 construct: expressed in transfected cells
T8 sequence (P28222 whole entry): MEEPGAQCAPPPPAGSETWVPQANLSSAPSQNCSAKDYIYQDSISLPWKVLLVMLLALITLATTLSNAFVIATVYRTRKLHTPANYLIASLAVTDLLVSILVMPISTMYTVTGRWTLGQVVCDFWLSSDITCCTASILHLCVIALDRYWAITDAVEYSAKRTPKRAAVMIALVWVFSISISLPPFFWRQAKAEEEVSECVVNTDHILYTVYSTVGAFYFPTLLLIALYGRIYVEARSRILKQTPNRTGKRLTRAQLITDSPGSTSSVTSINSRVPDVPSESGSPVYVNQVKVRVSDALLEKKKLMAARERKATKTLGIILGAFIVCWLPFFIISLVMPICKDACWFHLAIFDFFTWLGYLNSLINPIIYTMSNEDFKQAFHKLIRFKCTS
Procedure: as §1, §2, §3, §5

human 5-HT2A receptor = biological target: T9, human 5-HT2A receptor (Homo sapiens, UniProt P28223); assay: Radioligand competition binding, human 5-HT2A receptor ([3H] ketanserin)
T9 construct: expressed in transfected cells; host or cells: COS-7 (transient, pCEXV-3 vector)
T9 sequence (P28223 whole entry): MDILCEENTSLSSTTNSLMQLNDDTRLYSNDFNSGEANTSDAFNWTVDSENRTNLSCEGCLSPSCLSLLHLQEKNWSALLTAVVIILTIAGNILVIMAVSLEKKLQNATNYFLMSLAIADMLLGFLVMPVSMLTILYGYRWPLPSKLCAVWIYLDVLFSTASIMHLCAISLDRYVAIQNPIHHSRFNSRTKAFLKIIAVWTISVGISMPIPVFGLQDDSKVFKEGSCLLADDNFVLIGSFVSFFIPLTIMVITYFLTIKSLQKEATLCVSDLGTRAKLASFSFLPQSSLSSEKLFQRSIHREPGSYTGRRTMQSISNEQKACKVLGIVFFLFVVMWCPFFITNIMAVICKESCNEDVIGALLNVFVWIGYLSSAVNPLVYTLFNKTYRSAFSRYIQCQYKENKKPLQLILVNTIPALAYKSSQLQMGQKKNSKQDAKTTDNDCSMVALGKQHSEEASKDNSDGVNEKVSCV
Procedure: as §1, §2
as §7, with “vector. This construct was transfected into COS-7 cells by the DEAE-dextran method. Cells were harvested after 72 hours and lysed by sonication in 5 mM Tris-HCl, 5 mM EDTA, pH 7.5.” for “vector.”

human 5-HT7 receptor = biological target: T10, human 5-HT7 receptor (Homo sapiens, UniProt P34969); assay: Radioligand competition binding, human 5-HT7 receptor ([3H]-serotonin); conditions: read-out: Affinity at 5-HT7 (Ki ± SEM)
T10 construct: expressed in transfected cells
T10 sequence (P34969 whole entry): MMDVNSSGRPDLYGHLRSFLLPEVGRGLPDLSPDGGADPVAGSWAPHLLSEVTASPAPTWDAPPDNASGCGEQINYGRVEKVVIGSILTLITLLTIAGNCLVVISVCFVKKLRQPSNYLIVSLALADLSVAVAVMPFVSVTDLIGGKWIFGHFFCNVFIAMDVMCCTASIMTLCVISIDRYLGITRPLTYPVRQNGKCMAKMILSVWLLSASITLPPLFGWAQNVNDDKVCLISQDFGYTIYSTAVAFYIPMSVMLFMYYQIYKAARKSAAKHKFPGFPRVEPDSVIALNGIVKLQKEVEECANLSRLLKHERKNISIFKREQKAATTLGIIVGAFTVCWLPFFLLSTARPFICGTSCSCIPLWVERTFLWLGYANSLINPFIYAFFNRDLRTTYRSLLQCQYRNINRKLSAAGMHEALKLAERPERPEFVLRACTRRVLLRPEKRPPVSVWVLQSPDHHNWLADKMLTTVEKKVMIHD
Procedure: as §1, §2, §3, §5

human 5-HT2C receptor = biological target: T11, human 5-HT2C receptor (Homo sapiens, UniProt P28335); assay: Radioligand binding, human 5-HT2C receptor
T11 construct: expressed in transfected cells
T11 sequence (P28335 33-458): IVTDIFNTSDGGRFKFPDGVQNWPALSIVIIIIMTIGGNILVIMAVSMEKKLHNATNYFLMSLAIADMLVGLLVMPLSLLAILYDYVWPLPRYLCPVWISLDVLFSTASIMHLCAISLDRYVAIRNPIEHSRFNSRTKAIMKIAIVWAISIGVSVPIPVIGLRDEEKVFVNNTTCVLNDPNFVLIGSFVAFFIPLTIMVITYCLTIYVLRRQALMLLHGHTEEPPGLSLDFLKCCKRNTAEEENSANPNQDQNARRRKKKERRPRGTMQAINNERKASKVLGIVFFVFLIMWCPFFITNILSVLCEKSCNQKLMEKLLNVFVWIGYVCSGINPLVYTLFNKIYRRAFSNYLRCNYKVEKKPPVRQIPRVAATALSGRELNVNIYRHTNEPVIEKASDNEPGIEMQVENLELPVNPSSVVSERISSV
Procedure: as §1, §6

[2] = rat, prior administration of antagonist 1.0 mg/kg, i.p.

Ki (human 5-HT1F receptor) | Ki (human 5-HT1E receptor) | Ki (human 5-HT2B receptor; human 5-HT2B, read-out: Affinity at 5-HT2B (Ki ± SEM)) | Ki (human 5-HT2A receptor; human 5-HT2A, read-out: Affinity at 5-HT2A (Ki ± SEM)) | Ki (human 5-HT2C receptor; human 5-HT2C, read-out: Affinity at 5-HT2C (Ki ± SEM)) | Compound | Ki (human 5-HT1D receptor) | Ki (human 5-HT6 receptor) | Ki (human 5-HT4 receptor) | Ki (human 5-HT1A receptor) | Effect on distension-induced rhythmic contractions of the rat bladder ([1]; i.p.) | Ki (human 5-HT1B receptor) | Ki (human 5-HT7 receptor) | Blockade of the inhibitory effect of Compound 2 on bladder contractions [1, 2] | Blockade of the inhibitory effect of the GABAB agonist 3-APMPA on bladder contractions [1, 2] | Ki (human 5-HT2B receptor) | Ki (human 5-HT2A receptor) | Ki (human 5-HT2C receptor) | Effect on bladder contractions (positive control) ([1]; rat, after Compound 3, dose not given)
7.11 ± 0.76 nM | 2900 ± 288 nM | 4200 ± 219 nM | > 5000 nM | 4760 ± 169 nM | CN(C)C1CCc2oc3ccc(NC(=O)c4ccncc4)cc3c2C1 (centres unmarked) [Compound 1, N-(N,N-Dimethyl-1,2,3,4-tetrahydro-2-aminodibenzofur-8-yl)-pyridine-4-carboxamide] | 1780 ± 87 nM | > 5000 nM | 1870 ± 57 nM | 367 ± 42 nM | inhibited | 751 ± 68 nM | > 5000 nM | – | – | – | – | – | –
3.47 ± 0.08 nM | 461 ± 102 nM | – | – | – | CN(C)[C@@H]1CCc2c([nH]c3ccc(NC(=O)c4ccc(F)cc4)cc23)C1 [Compound 2, (R)-(+)-6-(4-fluorobenzoyl)amino-2-(dimethyl)amino-1,2,3,4-tetrahydro-9H-carbazole] | – | – | – | – | inhibited | – | – | – | – | – | – | – | –
– | – | – | – | – | CP(=O)(O)CCCN [Compound 3-APMPA, 3-aminopropyl-methyl-phosphinic acid, reference compound] | – | – | – | – | – | – | – | – | – | – | – | – | inhibitory effect

Compound | Ki (human 5-HT1F receptor) | Ki (human 5-HT1E receptor) | Ki (human 5-HT2B receptor; human 5-HT2B, read-out: Affinity at 5-HT2B (Ki ± SEM)) | Ki (human 5-HT2A receptor; human 5-HT2A, read-out: Affinity at 5-HT2A (Ki ± SEM)) | Ki (human 5-HT2C receptor; human 5-HT2C, read-out: Affinity at 5-HT2C (Ki ± SEM)) | Ki (human 5-HT1D receptor) | Ki (human 5-HT6 receptor) | Ki (human 5-HT4 receptor) | Ki (human 5-HT1A receptor) | Effect on distension-induced rhythmic contractions of the rat bladder ([1]; i.p.) | Ki (human 5-HT1B receptor) | Ki (human 5-HT7 receptor) | Blockade of the inhibitory effect of Compound 2 on bladder contractions [1, 2] | Blockade of the inhibitory effect of the GABAB agonist 3-APMPA on bladder contractions [1, 2] | Ki (human 5-HT2B receptor) | Ki (human 5-HT2A receptor) | Ki (human 5-HT2C receptor) | Effect on bladder contractions (positive control) ([1]; rat, after Compound 3, dose not given)
O[C@H](COc1ccc2ccccc2c1)CN1CCC(O)(c2cnc3ccccc3c2)CC1 [Compound 3, 1-((2S)-hydroxy-3-(naphth-2-yloxy)prop-1-yl)-4-hydroxy-4-(quinolin-3-yl)piperidine] | 4.31 ± 0.53 nM | 3670 ± 505 nM | – | – | – | 1530 ± 400 nM | 4220 ± 399 nM | 405 ± 122 nM | 591 ± 143 nM | – | 1280 ± 144 nM | 4410 ± 514 nM | complete blockade | failed to block | 496 ± 36 nM | 377 ± 94 nM | 1370 ± 341 nM | –
